Assays:
Histone deacetylase 3 = Histone deacetylase 3 (Homo sapiens, UniProt O15379); experiment: Inhibition of recombinant His6-tagged GST-fused human HDAC3 expressed in baculovirus infected insect High5 cells using Ac-Lys-Tyr-Lys(epsilon-acetyl)-AMC as substrate after 24 hrs
Histone deacetylase 1 = Histone deacetylase 1 (Homo sapiens, UniProt Q13547); experiment: Inhibition of recombinant His6-tagged GST-fused human HDAC1 expressed in baculovirus infected insect High5 cells using Ac-Lys-Tyr-Lys(epsilon-acetyl)-AMC as substrate after 24 hrs
Chain of Histone deacetylase 1 (Q13547 whole entry, the tested form may be a part): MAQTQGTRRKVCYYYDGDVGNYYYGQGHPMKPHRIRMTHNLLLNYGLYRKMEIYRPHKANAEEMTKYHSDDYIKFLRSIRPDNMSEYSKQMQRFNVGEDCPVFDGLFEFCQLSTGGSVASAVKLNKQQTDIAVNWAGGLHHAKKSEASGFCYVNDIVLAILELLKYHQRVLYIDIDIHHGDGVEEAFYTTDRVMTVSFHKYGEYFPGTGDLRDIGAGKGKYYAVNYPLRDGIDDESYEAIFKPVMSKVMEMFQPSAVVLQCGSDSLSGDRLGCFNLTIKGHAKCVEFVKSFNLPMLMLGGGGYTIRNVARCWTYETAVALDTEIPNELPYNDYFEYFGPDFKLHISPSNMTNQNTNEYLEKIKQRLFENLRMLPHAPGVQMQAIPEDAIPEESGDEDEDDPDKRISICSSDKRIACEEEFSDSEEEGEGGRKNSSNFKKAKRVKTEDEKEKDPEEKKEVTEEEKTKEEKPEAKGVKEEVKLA

RPMI-8226 = experiment: Cytotoxicity against human RPMI8226 cells assessed as cell viability after 72 hrs by CCK8 assay; type: functional, cell-based; conditions: RPMI-8226, 72 h
[1] = molecular target: T1, Protein deacetylase HDAC6 (Homo sapiens, UniProt Q9UBN7); experiment: Inhibition of recombinant His6-tagged GST-fused human HDAC6 expressed in baculovirus infected insect High5 cells using Boc-Lys-(epsilon-acetyl)-AMC as substrate after 3 hrs
T1 sequence (Q9UBN7 whole entry): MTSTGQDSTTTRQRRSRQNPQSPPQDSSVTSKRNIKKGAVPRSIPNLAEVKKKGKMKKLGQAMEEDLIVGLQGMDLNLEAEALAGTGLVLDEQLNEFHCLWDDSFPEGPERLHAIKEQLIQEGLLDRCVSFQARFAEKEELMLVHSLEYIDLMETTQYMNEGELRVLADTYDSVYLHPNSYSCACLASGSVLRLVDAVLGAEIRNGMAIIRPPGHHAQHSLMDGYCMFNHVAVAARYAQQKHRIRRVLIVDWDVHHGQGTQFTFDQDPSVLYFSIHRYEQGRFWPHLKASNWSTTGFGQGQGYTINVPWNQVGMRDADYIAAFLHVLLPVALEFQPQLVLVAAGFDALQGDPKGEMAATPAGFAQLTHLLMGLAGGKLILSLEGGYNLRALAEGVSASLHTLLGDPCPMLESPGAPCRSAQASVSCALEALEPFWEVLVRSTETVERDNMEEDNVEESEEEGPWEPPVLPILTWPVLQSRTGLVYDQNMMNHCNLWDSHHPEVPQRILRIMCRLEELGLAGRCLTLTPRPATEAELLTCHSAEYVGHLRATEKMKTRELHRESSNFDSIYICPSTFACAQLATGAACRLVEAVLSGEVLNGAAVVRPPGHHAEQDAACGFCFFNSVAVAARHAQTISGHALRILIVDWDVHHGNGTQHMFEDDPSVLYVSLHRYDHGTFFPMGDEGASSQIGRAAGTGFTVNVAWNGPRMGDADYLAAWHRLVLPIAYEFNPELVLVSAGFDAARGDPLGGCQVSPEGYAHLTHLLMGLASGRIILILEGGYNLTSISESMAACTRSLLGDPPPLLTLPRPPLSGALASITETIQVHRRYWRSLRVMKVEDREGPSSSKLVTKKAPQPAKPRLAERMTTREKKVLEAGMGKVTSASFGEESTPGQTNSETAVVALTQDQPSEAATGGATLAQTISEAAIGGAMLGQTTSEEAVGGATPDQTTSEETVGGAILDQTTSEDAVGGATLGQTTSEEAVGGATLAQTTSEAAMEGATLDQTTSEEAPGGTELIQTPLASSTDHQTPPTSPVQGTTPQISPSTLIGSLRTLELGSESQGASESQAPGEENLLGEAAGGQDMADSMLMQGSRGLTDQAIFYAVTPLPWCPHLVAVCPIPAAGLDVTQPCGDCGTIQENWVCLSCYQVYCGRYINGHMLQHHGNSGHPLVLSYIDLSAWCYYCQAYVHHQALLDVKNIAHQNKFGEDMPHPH

[2] = molecular target: T2, Histone deacetylase (Homo sapiens) (UniProt Q13547+O15379+Q9UBN7+Q92769+Q9UQL6+Q8WUI4+Q9BY41+Q96DB2+P56524+Q9UKV0+Q969S8); experiment: Inhibition of HDAC in human RPMI8226 cells assessed as upregulation of acetylated histone H3 level after 24 hrs by Western blot analysis; type: cell-based; conditions: RPMI-8226
[3] = molecular target: T2, Histone deacetylase (Homo sapiens); experiment: Inhibition of HDAC in human RPMI8226 cells assessed as upregulation of acetylated alpha-tubulin level after 24 hrs by Western blot analysis; type: cell-based; conditions: RPMI-8226
HepG2 = experiment: Cytotoxicity against human HepG2 cells assessed as cell viability after 72 hrs by CCK8 assay; type: functional, cell-based; conditions: HepG2, 72 h
HCT-116 = experiment: Cytotoxicity against human HCT116 cells assessed as cell viability after 72 hrs by CCK8 assay; type: functional, cell-based; conditions: HCT-116, 72 h
hERG (KCNH2) [4] = molecular target: T3, hERG (KCNH2) (Homo sapiens, UniProt Q12809); experiment: Inhibition of human ERG overexpressed in CHO cells at 3 uM by Qpatch method relative to control; type: cell-based; conditions: CHO cells overexpressing human ERG
T3 sequence (Q12809 whole entry): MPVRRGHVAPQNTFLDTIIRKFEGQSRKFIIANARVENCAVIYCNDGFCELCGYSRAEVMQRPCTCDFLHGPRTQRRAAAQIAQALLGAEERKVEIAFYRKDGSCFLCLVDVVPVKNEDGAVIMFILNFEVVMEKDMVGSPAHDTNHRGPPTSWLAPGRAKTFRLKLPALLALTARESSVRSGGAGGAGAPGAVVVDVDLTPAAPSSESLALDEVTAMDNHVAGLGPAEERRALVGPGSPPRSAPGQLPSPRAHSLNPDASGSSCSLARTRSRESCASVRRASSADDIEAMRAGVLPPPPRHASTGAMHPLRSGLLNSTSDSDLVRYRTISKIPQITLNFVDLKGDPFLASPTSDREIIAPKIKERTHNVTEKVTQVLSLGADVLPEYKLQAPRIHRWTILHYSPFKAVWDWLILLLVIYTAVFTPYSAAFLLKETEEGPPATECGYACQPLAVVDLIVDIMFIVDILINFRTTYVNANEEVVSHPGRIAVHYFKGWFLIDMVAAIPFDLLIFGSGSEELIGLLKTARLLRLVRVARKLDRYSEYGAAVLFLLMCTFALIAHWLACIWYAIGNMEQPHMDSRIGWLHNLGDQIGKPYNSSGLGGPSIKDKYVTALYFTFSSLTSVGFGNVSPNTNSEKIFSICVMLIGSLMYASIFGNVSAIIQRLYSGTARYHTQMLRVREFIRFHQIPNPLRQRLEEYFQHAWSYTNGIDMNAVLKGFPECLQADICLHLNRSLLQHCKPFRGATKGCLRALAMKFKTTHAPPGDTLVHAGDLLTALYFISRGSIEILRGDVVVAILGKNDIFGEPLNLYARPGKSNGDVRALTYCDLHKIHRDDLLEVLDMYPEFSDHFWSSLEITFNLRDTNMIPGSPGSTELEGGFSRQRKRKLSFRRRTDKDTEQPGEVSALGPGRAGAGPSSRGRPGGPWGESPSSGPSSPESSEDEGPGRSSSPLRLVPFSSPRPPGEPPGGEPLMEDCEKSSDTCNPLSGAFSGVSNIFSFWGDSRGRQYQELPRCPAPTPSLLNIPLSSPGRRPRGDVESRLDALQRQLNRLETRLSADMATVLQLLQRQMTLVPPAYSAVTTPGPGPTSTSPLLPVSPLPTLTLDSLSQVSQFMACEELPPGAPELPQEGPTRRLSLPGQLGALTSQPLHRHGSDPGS

[5] = molecular target: Voltage-gated inwardly rectifying potassium channel KCNH2 (Homo sapiens, UniProt Q12809); experiment: Inhibition of human ERG overexpressed in CHO cells by Qpatch method; type: cell-based
Chain of Voltage-gated inwardly rectifying potassium channel KCNH2 (Q12809 whole entry): as above

hERG (KCNH2) [6] = molecular target: T3, hERG (KCNH2); experiment: Inhibition of human ERG overexpressed in CHO cells at 40 uM by Qpatch method relative to control; type: cell-based; conditions: CHO cells overexpressing human ERG

Chain of Histone deacetylase 3 (O15379 whole entry, the tested form may be a part): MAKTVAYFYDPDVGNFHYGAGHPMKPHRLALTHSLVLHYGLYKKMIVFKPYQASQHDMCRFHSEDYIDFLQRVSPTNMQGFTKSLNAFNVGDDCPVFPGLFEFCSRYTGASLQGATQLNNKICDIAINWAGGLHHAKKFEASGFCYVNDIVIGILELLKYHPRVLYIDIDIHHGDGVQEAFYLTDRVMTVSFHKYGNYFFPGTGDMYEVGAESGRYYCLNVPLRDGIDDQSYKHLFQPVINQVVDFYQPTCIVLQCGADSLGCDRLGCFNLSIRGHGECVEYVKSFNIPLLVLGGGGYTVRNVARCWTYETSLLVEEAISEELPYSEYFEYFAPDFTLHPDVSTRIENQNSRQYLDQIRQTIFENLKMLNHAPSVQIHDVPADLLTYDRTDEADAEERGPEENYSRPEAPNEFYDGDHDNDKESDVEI

| IC50 (Histone deacetylase 3) [nM] | IC50 (Histone deacetylase 1) [nM] | IC50 [1] [nM] | inhibition [2] | inhibition [3] | Compound | IC50 (RPMI-8226) [nM] | IC50 (HepG2) [nM] | IC50 (HCT-116) [nM] | inhibition at 3 µM (hERG (KCNH2) [4]) [%] | IC50 [5] [nM] | inhibition at 40 µM (hERG (KCNH2) [6]) [%] |
| --- | --- | --- | --- | --- | --- | --- | --- | --- | --- | --- | --- |
| 17.6 | 15.4 | 6.26 |  |  | Cc1ccc(Nc2nccc3ccc(NC(=O)CCCCCCC(=O)NO)cc23)c(Br)c1 | 470 | 8450 | 260 |  |  |  |
| 40.8 | 45.9 | 29.5 |  |  | O=C(CCCCCCC(=O)Nc1ccc2ccnc(N3CCOCC3)c2c1)NO | 1330 | 14000 | 280 |  |  |  |
| 92 | 65.8 | 32.1 |  |  | CCCCn1ccc2ccc(NC(=O)CCCCCCC(=O)NO)cc2c1=O | 1880 | 18500 | 1720 |  |  |  |
| 36 | 41.6 | 25 |  |  | CC(C)N1CCN(c2nccc3ccc(NC(=O)CCCCCCC(=O)NO)cc23)CC1 | 1350 |  |  |  |  |  |
| 69.2 | 66 | 54.2 |  |  | CC(C)CCn1ccc2ccc(NC(=O)CCCCCCC(=O)NO)cc2c1=O | 1800 |  |  |  |  |  |
| 21.2 | 19.5 | 29.9 |  |  | Cc1ccc(Nc2nccc3ccc(NC(=O)CCCCCCC(=O)NO)cc23)c(Cl)c1 | 520 | 10000 | 170 |  |  |  |
| 192 | 263 | 148 |  |  | COCCN(CCOC)c1nccc2ccc(NC(=O)CCCCCCC(=O)NO)cc12 | 7710 |  |  |  |  |  |
| 14 | 27.9 | 13.6 |  |  | COCCCNc1nccc2ccc(NC(=O)CCCCCCC(=O)NO)cc12 | 2710 |  |  |  |  |  |
| 4 | 4.17 | 3.77 |  |  | Cc1ccc(Nc2nccc3ccc(NC(=O)CCCCCCC(=O)NO)cc23)cc1 | 770 |  |  |  |  |  |
| 39.7 | 35.4 | 40.9 |  |  | Cc1ccc(Nc2nccc3ccc(NC(=O)CCCCCCC(=O)NO)cc23)c(F)c1 | 2040 |  |  |  |  |  |

More lines, now with the values behind:

| Compound | IC50 (Histone deacetylase 3) [nM] | IC50 (Histone deacetylase 1) [nM] | IC50 [1] [nM] | inhibition [2] | inhibition [3] | IC50 (RPMI-8226) [nM] | IC50 (HepG2) [nM] | IC50 (HCT-116) [nM] | inhibition at 3 µM (hERG (KCNH2) [4]) [%] | IC50 [5] [nM] | inhibition at 40 µM (hERG (KCNH2) [6]) [%] |
| --- | --- | --- | --- | --- | --- | --- | --- | --- | --- | --- | --- |
| O=C(COc1ccc(C(=O)NO)cc1)Nc1ccc2ccnc(Nc3ccc4ccccc4c3)c2c1 | 276 | 272 | 545 |  |  | 7300 |  |  |  |  |  |
| O=C(CCCCCCC(=O)Nc1ccc2ccnc(Nc3cccc(Cl)c3F)c2c1)NO | 21.6 | 17.5 | 7.96 | Dose-dependent effect | Dose-dependent effect | 720 |  |  |  |  |  |
| O=C(CCCCCCC(=O)Nc1ccc2ccnc(Nc3ccccc3F)c2c1)NO | 18.9 | 18 | 11 |  |  | 940 |  |  |  |  |  |
| COc1cc(N)c(Cl)cc1C(=O)NC1CCN(CCCOc2ccc(F)cc2)CC1OC (stereo not drawn) [CISAPRIDE] |  |  |  |  |  |  |  |  | 98.7 |  |  |
| Cc1ccc(Nc2nccc3ccc(NCc4ccc(/C=C/C(=O)NO)cc4)cc23)c(Cl)c1 | 475 | 571 | 286 |  |  | 2710 |  |  |  |  |  |
| Cc1ccc(Nc2nccc3ccc(NCc4ccc(/C=C/C(=O)NO)cc4)cc23)c(Br)c1 | 633 | 439 | 304 |  |  | 5220 |  |  |  |  |  |
| Cc1ccc(Nc2nccc3ccc(NCc4ccc(/C=C/C(=O)NO)cc4)cc23)cc1 | 176 | 205 | 58.9 |  |  | 2040 |  |  |  |  |  |
| O=C(CCCCCCC(=O)Nc1ccc2ccnc(Nc3ccc4ccccc4c3)c2c1)NO | 5.42 | 5.75 | 5.15 |  |  | 740 |  |  |  | > 40000 | 17.5 |
| COc1ccc(Cn2ccc3ccc(NC(=O)CCCCCCC(=O)NO)cc3c2=O)c(OC)c1 | 108 | 98.1 | 100 |  |  | 2640 |  |  |  |  |  |
| Cc1ccc(Nc2nccc3ccc(NCc4ccc(C(=O)NO)cc4)cc23)cc1 | 264 | 323 | 352 |  |  | > 20000 |  |  |  |  |  |
| O=C(CCCCCCC(=O)Nc1ccc2ccnc(Nc3ccc(Br)cc3F)c2c1)NO | 16.7 | 15.5 | 6.83 | Dose-dependent effect | Dose-dependent effect | 460 | 5870 | 190 |  | > 40000 | 43.7 |
| CCN(CC)CCn1ccc2ccc(NC(=O)CCCCCCC(=O)NO)cc2c1=O | 74.4 | 69 | 38.7 |  |  | 2160 |  |  |  |  |  |

Source: ChEMBL document CHEMBL3600352, “Design, synthesis and biological evaluation of isoquinoline-based derivatives as novel histone deacetylase inhibitors” (Bioorg Med Chem, 2015)
